Consider 19 molecules from patent publication US10294246B2, “Substituted boronic acids and boronate esters as immunoproteasome inhibitors” (MERCK PATENT GMBH, priority 2014, dated 2019).

pIC50: −log10 of the molar value.

As a reminder, the pIC50 is the IC50 on a negative log10 scale, so that one unit is a factor of ten. Read a high pIC50 as a low IC50.

For experiment [1], the target named is human constitutive proteasome (Beta5) (Homo sapiens (Human), UniProt P28074). As to the kind of experiment: Determination of Beta5 activity (fluorescence intensity assay, Suc-LLVY-AMC). It is filed as biochemical. The conditions noted are these: purified human constitutive proteasome 1.25 nM, Suc-LLVY-AMC 40 μM. The essentials:
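Purified constitutive proteasome (1.25 nM) was preincubated with compounds 20 min at 25 °C in 50 mM Tris pH 7.4, 0.03% SDS, 1 mM EDTA, 1% DMSO. Suc-LLVY-AMC (40 μM) was then added for 60 min at 37 °C. AMC fluorescence was read at ex 350/em 450 nm.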

In experiment [2] the target is human immunoproteasome (LMP7) (Homo sapiens (Human), UniProt P28062). The experiment is described as follows: Determination of LMP7 activity (fluorescence intensity assay, Suc-LLVY-AMC). It is filed as biochemical. The conditions noted are these: for Selectivity LMP7 vs Beta5: LMP7 versus Beta5; for pIC50: purified human immunoproteasome 0.25 nM, Suc-LLVY-AMC 40 μM. The essentials:
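0.25 nM purified human immunoproteasome preincubated 20 min at 25 °C with serially diluted compounds in 50 mM Tris pH 7.4, 0.03% SDS, 1 mM EDTA, 1% DMSO. Reaction started with 40 μM Suc-LLVY-AMC, run 60 min at 37 °C. Fluorescence read at ex 350/em 450 nm.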

As for `CCOC(=O)Nc1cccc(CC(=O)N[C@@H](Cc2coc3ccccc23)B(O)O)c1` [Compound No. 72, [(1R)-2-(benzofuran-3-yl)-1-[[2-[3-(ethoxycarbonylamino)phenyl]-acetyl]amino]ethyl]boronic acid], the pIC50 in experiment [1] was 5.30 to 6.30. Moreover, in experiment [2], the “Selectivity LMP7 vs Beta5” value was “+++ (50 ≤ Selectivity < 70)” and the negative logarithm of the IC50 (pIC50) is more than 7.30.

For the molecule `O=C(Cc1ccccc1)N[C@@H](Cc1c(Cl)oc2ccccc12)B(O)O` [Compound No. 73, [(1R)-2-(2-chlorobenzofuran-3-yl)-1-[(2-phenylacetyl)amino]ethyl]-boronic acid], the pIC50 in experiment [1] was less than 5.30; in experiment [2], 6.30 to 7.30. Further, the “Selectivity LMP7 vs Beta5” value in experiment [2] is “+++ (50 ≤ Selectivity < 70)”.

Regarding `O=C(Cc1ccccc1)N[C@@H](CC1COc2ccccc21)B(O)O` (stereo partly drawn) [Compound No. 74, [(1R)-2-(2,3-dihydrobenzofuran-3-yl)-1-[(2-phenylacetyl)amino]-ethyl]boronic acid], the pIC50 in experiment [1] was 5.30 to 6.30; in experiment [2] it was more than 7.30. Besides, the “Selectivity LMP7 vs Beta5” value in experiment [2] is “+++++ (Selectivity ≥ 100)”.

With `Cc1cccc2c(C[C@H](NC(=O)Cc3ccccc3)B(O)O)coc12` [Compound No. 75, [(1R)-2-(7-methylbenzofuran-3-yl)-1-[(2-phenylacetyl)amino]-ethyl]boronic acid], in experiment [1], the negative logarithm of the IC50 (pIC50) was 5.30 to 6.30. In addition, in experiment [2], the “Selectivity LMP7 vs Beta5” value is listed as “+++++ (Selectivity ≥ 100)” and the negative-log IC50 (pIC50) was more than 7.30.

In experiment [1], `CO[C@@H](C(=O)N[C@@H](Cc1coc2c(C)cccc12)B(O)O)c1ccccc1` [Compound No. 76, [(1R)-1-[[(2R)-2-methoxy-2-phenyl-acetyl]amino]-2-(7-methylbenzofuran-3-yl)ethyl]boronic acid] had a pIC50 of 5.30 to 6.30. For the same molecule, in experiment [2], the “Selectivity LMP7 vs Beta5” value is listed as “+++++ (Selectivity ≥ 100)” and the negative-log IC50 (pIC50) is more than 7.30.

The molecule `Cc1cccc2c1OCC2C[C@H](NC(=O)Cc1ccccc1)B(O)O` (stereo partly drawn) [Compound No. 77, [(1R)-2-(7-methyl-2,3-dihydrobenzofuran-3-yl)-1-[(2-phenylacetyl)-amino]ethyl]boronic acid] gave a pIC50 in experiment [1] of 5.30 to 6.30. In experiment [2], the “Selectivity LMP7 vs Beta5” value was “+++++ (Selectivity ≥ 100)” and the negative-log IC50 (pIC50) is more than 7.30.

Take `COc1ccc(OC)c(CC(=O)N[C@@H](Cc2coc3c(C)cccc23)B(O)O)c1` [Compound No. 78, [(1R)-1-[[2-(2,5-dimethoxyphenyl)acetyl]amino]-2-(7-methylbenzofuran-3-yl)ethyl]boronic acid]: the pIC50 in experiment [1] is 5.30 to 6.30. In experiment [2], the “Selectivity LMP7 vs Beta5” value was “+++++ (Selectivity ≥ 100)” and the negative-log IC50 (pIC50) is more than 7.30.

Molecule `Cc1cccc2c(C[C@H](NC(=O)[C@H](CO)c3ccccc3)B(O)O)coc12` [Compound No. 79, [(1R)-1-[[(2S)-3-hydroxy-2-phenyl-propanoyl]amino]-2-(7-methylbenzofuran-3-yl)ethyl]boronic acid] gave a negative-log IC50 (pIC50) in experiment [1] of 5.30 to 6.30. In experiment [2], the “Selectivity LMP7 vs Beta5” value is on record as “+++++ (Selectivity ≥ 100)” and the pIC50 is more than 7.30.

With `Cc1cccc2c(C[C@@H](NC(=O)[C@H](CO)c3ccccc3)B(O)O)coc12` [Compound No. 80, [(1S)-1-[[(2S)-3-hydroxy-2-phenyl-propanoyl]amino]-2-(7-methylbenzofuran-3-yl)ethyl]boronic acid], the pIC50 in experiment [1] was less than 5.30. Moreover, in experiment [2], the “Selectivity LMP7 vs Beta5” value is recorded as “+++++ (Selectivity ≥ 100)” and the pIC50 was 6.30 to 7.30.

On to `COc1ccc(CC(=O)N[C@H](Cc2coc3c(C)cccc23)B(O)O)cc1` [Compound No. 81, [(1S)-1-[[2-(4-methoxyphenyl)acetyl]amino]-2-(7-methylbenzofuran-3-yl)ethyl]boronic acid], for which the pIC50 was less than 5.30 in experiment [1] and 6.30 to 7.30 in experiment [2]. For the same molecule, the “Selectivity LMP7 vs Beta5” value in experiment [2] is “+++++ (Selectivity ≥ 100)”.

`COc1ccc(CC(=O)N[C@@H](Cc2coc3c(C)cccc23)B(O)O)cc1` [Compound No. 82, [(1R)-1-[[2-(4-methoxyphenyl)acetyl]amino]-2-(7-methylbenzofuran-3-yl)ethyl]boronic acid] had a pIC50 in experiment [1] of 5.30 to 6.30. Besides, in experiment [2], the “Selectivity LMP7 vs Beta5” value is “+++++ (Selectivity ≥ 100)” and the pIC50 is more than 7.30.

As for `Cc1cccc2c(C[C@H](NC(=O)[C@@H](CO)c3ccccc3)B(O)O)coc12` [Compound No. 83, [(1R)-1-[[(2R)-3-hydroxy-2-phenyl-propanoyl]amino]-2-(7-methylbenzofuran-3-yl)ethyl]boronic acid], the pIC50 in experiment [1] is 5.30 to 6.30. Moreover, in experiment [2], the “Selectivity LMP7 vs Beta5” value is on record as “+++++ (Selectivity ≥ 100)” and the pIC50 is more than 7.30.

`Cc1cccc2c(C[C@@H](NC(=O)[C@@H](CO)c3ccccc3)B(O)O)coc12` [Compound No. 84, [(1S)-1-[[(2R)-3-hydroxy-2-phenyl-propanoyl]amino]-2-(7-methylbenzofuran-3-yl)ethyl]boronic acid] had a negative logarithm of the IC50 (pIC50) in experiment [1] of less than 5.30. In experiment [2], the “Selectivity LMP7 vs Beta5” value is on record as “++ (10 ≤ Selectivity < 50)” and the pIC50 was 5.30 to 6.30.

Molecule `O=C(Cc1ccccc1)N[C@@H](Cc1coc2c(Cl)cccc12)B(O)O` [Compound No. 85, [(1R)-2-(7-chlorobenzofuran-3-yl)-1-[(2-phenylacetyl)amino]ethyl]-boronic acid] showed a negative logarithm of the IC50 (pIC50) in experiment [1] of 5.30 to 6.30. Moreover, in experiment [2], the “Selectivity LMP7 vs Beta5” value was “+++++ (Selectivity ≥ 100)” and the negative logarithm of the IC50 (pIC50) is more than 7.30.

On to `COc1ccc(CCC(=O)N[C@@H](CC2COc3c(C)cccc32)B(O)O)nc1` (stereo partly drawn) [Compound No. 86, [(1R)-1-[3-(5-methoxy-2-pyridyl)propanoylamino]-2-(7-methyl-2,3-dihydrobenzofuran-3-yl)ethyl]boronic acid], for which the negative-log IC50 (pIC50) in experiment [1] was less than 5.30; in experiment [2], more than 7.30. In addition, the “Selectivity LMP7 vs Beta5” value in experiment [2] was “+++++ (Selectivity ≥ 100)”.

`COc1ccc(CCC(=O)N[C@H](CC2COc3c(C)cccc32)B(O)O)nc1` (stereo partly drawn) [Compound No. 87, [(1S)-1-[3-(5-methoxy-2-pyridyl)propanoylamino]-2-(7-methyl-2,3-dihydrobenzofuran-3-yl)ethyl]boronic acid] gave a negative logarithm of the IC50 (pIC50) in experiment [1] of less than 5.30. In experiment [2], the “Selectivity LMP7 vs Beta5” value is recorded as “+ (Selectivity < 10)” and the negative-log IC50 (pIC50) was 5.30 to 6.30.

`COc1ccc(CC(=O)N[C@@H](C[C@H]2COc3c(C)cccc32)B(O)O)cc1` [Compound No. 88, [(1R)-1-[[2-(4-methoxyphenyl)acetyl]amino]-2-[(3R)-7-methyl-2,3-dihydrobenzofuran-3-yl]ethyl]boronic acid]: in experiment [1], the negative-log IC50 (pIC50) was less than 5.30. Moreover, in experiment [2], the “Selectivity LMP7 vs Beta5” value is “+++++ (Selectivity ≥ 100)” and the pIC50 was 6.30 to 7.30.

On to `COc1ccc(CC(=O)N[C@@H](C[C@@H]2COc3c(C)cccc32)B(O)O)cc1` [Compound No. 89, [(1R)-1-[[2-(4-methoxyphenyl)acetyl]amino]-2-[(3S)-7-methyl-2,3-dihydrobenzofuran-3-yl]ethyl]boronic acid], for which the pIC50 in experiment [1] is less than 5.30. Further, in experiment [2], the “Selectivity LMP7 vs Beta5” value was “+++++ (Selectivity ≥ 100)” and the pIC50 is more than 7.30.

In the case of `N#Cc1ccccc1CC(=O)N[C@@H](Cc1coc2ccccc12)B(O)O` [Compound No. 90, [(1R)-2-(benzofuran-3-yl)-1-[[2-(2-cyanophenyl)acetyl]amino]ethyl]-boronic acid], the pIC50 in experiment [1] is 5.30 to 6.30; in experiment [2], more than 7.30. In addition, the “Selectivity LMP7 vs Beta5” value in experiment [2] is on record as “+++++ (Selectivity ≥ 100)”.
